Results reported in patent US20210244712A1, “METHODS FOR TREATING PATIENTS WITH CANCER HAVING DEFECTS IN CYCLIN D REGULATION” (NysnoBio Ireland DAC, priority 2018, published 2021).

Experiments:
Assay type in all cases: cell-based
Cyclin D [1] = assay: Mechanistic study: Cyclin D western blot with or without epoxomicin; conditions: ES-2, 18 hours
Description: In order to establish that the decrease in Cyclin D seen after Compound 42 treatment is due to proteasomal degradation, ES-2, ovarian cancer cell line was treated with Compound 42 (250 nM) in the presence or absence of epoxomicin, a specific inhibitor of the proteasome (60 nM) for 18 hours. Following the treatment, western blotting for Cyclin D (FIG. 10A), Ub (FK-2) (FIG. 10B), and GAPDH control (bottom blot, below FIGS. 10A and 10B) was performed. Epoxomicin is a specific inhibitor of the proteasome.

ES-2 = assay: Cell proliferation assay; conditions: Homo sapiens
cyclin E1 = assay: Western blot of cellular biomarker cyclin E1; conditions: 250 nM Compound 42, 24 hours, compared to palbociclib 1 μM
Description: (§1) Various cancer cells lines were treated with Compound 42 or palbociclib (control) to measure the expression of cyclin D, cyclin E, pRb, and Rb.
(§2) Day 1: 6 well plate was seeded with 3×10^5 cells/well with a final volume of 3 mL and incubated for 24 hours at 37° C.
(§3) Day 2: The media was removed and Compound 42 (see below for dose) or palbociclib (1 μM) as positive control were added to the wells the desired concentration in cell culture media, giving a final volume of 3 mL per well. The plate was incubated for 24 hours at 37° C. (or desired period).
(§4) Day 3: The media was removed from wells and washed ×3 with PBS. 500 μl of trypsin was added to the wells and incubate until cells detach. 500 μl media was added to neutralise trypsin, transferred to 2 ml Eppendorfs, and centrifuged (1500 RPM for 5 minutes). While spinning, the wells were washed with 1 mL PBS to collect any remaining cells. This wash was used to centrifuged cell pellet. After the first spin, the supernatant was discarded and the pellet was washed with PBS collected from the previous step. The centrifugation step was repeated and the supernatant was discarded and the pellet wash again with fresh PBS. The centrifugation and wash with PBS was repeated one more time. RIPA cell lysate buffer was prepared and Protease Inhibitor Cocktail was included. The supernatant was discarded and […] RIPA cell lysate buffer was added to the pellet. The protein concentration was determined using the BCA assay kit.
(§5) Day 4: Western blot analysis was performed. 4-12% Bis-Tris gel and MOPS running buffer was used. The running buffer was made to sufficient volume of running buffer to 1× concentration. 20 μg protein (v/v loading & reducing buffer) of each sample was loaded into wells. Some proteins may require more, or less, protein loaded. The gel was ran at standard settings 200 V for 45 minutes. […] The membrane was blocked using 5% non-fat powdered milk* made up in 1×TBS containing 0.1% Tween (TBS-T and incubated for 1 hr with gentle rocking. The observation from the Western blot analysis is quantified in FIGS. 2-7D. […]

Rb = assay: Western blot of cellular biomarker Rb
Description: as §1, §2, §3, §4, §5

HCT-116 = assay: Senescence quantification (SA-βGal), Example 6A; conditions: Compound 42 250 nM, Palbociclib 1 μM, compared to control (DMSO)
Description: Day 1: 96 well plate was seeded with 4000 cells/well and incubated for 24 hours at 37° C. […]
Day 6: Senescence cells histochemical Staining Kit (Sigma) was used. The growth medium form the cells were aspirated then washed twice with fresh […]. […] 100 μL filtered Fixation Buffer was added per well and the plate was incubated for 6-7 minutes at room temperature. Then, the cells were rinsed 3 times with PBS. 50 μL of the Staining Mixture was added per well and incubated at 37° C. overnight without CO2 (staining is pH dependent). After staining, the Staining Mixture was removed, PBS and Hoechst dye (1 μg/mL) were added. Ten images were taken with Epifluorescence Microscope using the blue filter and 10 images were taken in the brightfield. The images were used to count the total cell number—the positive blue cells were counted in the bright field. The percentage of cells expressing β-galactosidase was calculated.
Method 1: Mammalian β-Galactosidase Assay Kit (Thermo Scientific) was used. […] The cells were washed once with PBS. 100 μL of the β-Galactosidase Assay Reagent was added to each well and the plate was covered and incubated for 30 minutes at 37° C. without CO2. The absorbance was measured at 405 nm. […]
Method 2: Assay of a portion of the lysate. […] 25 μL of lysate was removed and use it for Protein Quantification (BCA). […]
Senescence was quantified according to Example 4. […]

pRb = assay: Western blot of cellular biomarker pRb
Description: as §1, §2, §3, §4, §5

OAW28 = assay: Cell proliferation assay; conditions: Homo sapiens, OAW-28
cyclin E = assay: Western blot of cellular biomarker cyclin E; conditions: JEKO-1; 500 nM Compound 42; 48 hours; compared to palbociclib 1 μM
Description: as §1, §2, §3
Day 3: The media was removed from wells and washed ×3 with PBS. 500 μl of trypsin was added to the wells and incubate until cells detach. 500 μl media was added to neutralise trypsin, transferred to 2 ml Eppendorfs, and centrifuged (1500 RPM for 5 minutes). While spinning, the wells were washed with 1 mL PBS to collect any remaining cells. This wash was used to centrifuged cell pellet. After the first spin, the supernatant was discarded and the pellet was washed with PBS collected from the previous step. […] The protein concentration was determined using the BCA assay kit.
Day 4: Western blot analysis was performed. […] The membrane was blocked using 5% non-fat powdered milk* made up in 1×TBS containing 0.1% Tween (TBS-T and incubated for 1 hr with gentle rocking. The observation from the Western blot analysis is quantified in FIGS. 2-7D. […]

Cyclin D [2] = assay: Cyclin D degradation in cell lines; conditions: text summary of Table 7
[3] = HT116, with increasing concentration
[4] = OAW42, 250 nM Compound 42, 24 hours, compared to palbociclib 1 μM

Question: What does the source list for Cc1ccccc1C(=O)Nc1nc(NC(=O)c2ccccc2C)n(-c2ccc(OC(F)(F)F)cc2)n1 [Compound 42, N,N′-(1-(4-(trifluoromethoxy)phenyl)-1H-1,2,4-triazole-3,5-diyl)bis(2-methylbenzamide)]?
Answer: cyclin D levels (Cyclin D [1]; Compound 42 250 nM alone): induced cyclin D levels to decrease; cyclin D levels (Cyclin D [1]; Compound 42 250 nM alone, listed as compound 42): decreases cyclin D levels; cyclin D levels (Cyclin D [1]; Compound 42 250 nM in the presence of epoxomicin 60 nM): returned cyclin D levels to normal (or slightly above); cyclin D levels (Cyclin D [1]; Compound 42 250 nM in the presence of epoxomicin 60 nM, listed as compound 42): counterbalanced by adding epoxomicin; IC50 (ES-2; Ovarian ES-2, overexpression of Cyclin D, loss of p16 (mutant p53)): 0.057 µM; EC50 (ES-2; Table 7a, Ovarian (ES-2)): 0.042 µM; cyclin E1 expression (cyclin E1; A2780): reduction of cyclin E1 expressions; cyclin E1 expression (cyclin E1; ES-2): reduction of cyclin E1 expressions; cyclin E1 expression (cyclin E1; OAW42): some reduction of cyclin E1 expression; Rb expression (Rb; ES-2, 250 nM Compound 42, 24 hours, compared to palbociclib 1 μM): reduction of Rb expression; Rb expression (Rb; [3]): reduction; Rb expression (Rb; [4]): reduction of Rb expression; senescence (SA-βGal levels) (HCT-116): induced senescence; pRb expression (pRb; A2780, 250 nM Compound 42, 24 hours, compared to palbociclib 1 μM): some reduction of pRb expression; pRb expression (pRb; [3]): reduction; pRb expression (pRb; [4]): reduction of pRb expression; IC50 (OAW28; Ovarian OAW28, overexpression of Cyclin D, loss of p16 (mutant p53), loss of RB): 0.14 µM; EC50 (OAW28; Table 7a, Ovarian (OAW28)): 0.114 µM; cyclin E expression (cyclin E): reduction of cyclin E and cyclin D expression; degrading Cyclin D, overall statement (Cyclin D [2]): effective in degrading Cyclin D
